The values that follow come from publication PMC3705412, “PTP1B Inhibitory and Anti-Inflammatory Effects of Secondary Metabolites Isolated from the Marine-Derived Fungus Penicillium sp. JF-55” (Marine Drugs, 2013).

By IC50 is commonly meant the concentration that gives 50% inhibition.

The subject of assay [1] is TNF-α production in murine peritoneal macrophages. Nature of the assay: TNF-α production in LPS-stimulated macrophages, ELISA. Type of assay: cell-based, murine (C57BL/6 mice). As to conditions: Mus musculus, Peritoneal macrophage; pre-treated 12 h, LPS 1 μg/mL 18 h. On the procedure: (§1) C57BL/6 mice were purchased from Orient Bio Co. (Sungnam, Kyung-Kido, Korea). TG-elicited peritoneal macrophages were harvested four days after intraperitoneal (i.p.) injection of 3 mL of TG [37]. Peritoneal lavage was performed using 8 mL of Hanks’ Balanced Salt Solution containing 10 U/mL heparin. The cells were distributed in Roswell Park Memorial Institute medium (RPMI) supplemented with 10% heat-inactivated FBS, in 6-well tissue culture plates (5 × 10^6 cells/mL). The level of PGE2, TNF-α or IL-1β present in each sample was determined using a commercially available kit from R & D Systems. The assay was performed according to the manufacturer’s instructions. Briefly, murine peritoneal macrophages were cultured in 24-well plates, pre-incubated for 12 h with different concentrations of compounds 1–3, and then stimulated for 18 h with LPS. The cell culture supernatants were then immediately collected after treatment and centrifuged at 13,000× g for 2 min to remove particulate matter. The medium was added to a 96-well plate pre-coated with affinity-purified PGE2-specific polyclonal antibodies or the medium was added to a 96-well plate pre-coated with affinity-purified polyclonal antibodies that were specific to mouse TNF-α or IL-1β. An enzyme-linked polyclonal antibody specific for PGE2, mouse TNF-α or IL-1β was added to the wells for 20 h, followed by a final wash to remove any unbound antibody-enzyme reagent. A substrate solution was added, and the intensity of the color produced, which was measured at 450 nm (the correction wavelength was set at 540 nm or 570 nm), was proportional to the amount of PGE2, TNF-α or IL-1β present.
(An ELISA detects its analyte on a solid surface through an enzyme-linked reagent.)

For assay [2], the target named is T1, PTP1B (human, recombinant) (Homo sapiens, UniProt P18031).
T1 construct: purchased BIOMOL Research Laboratories, Inc
T1 sequence (P18031 1-435): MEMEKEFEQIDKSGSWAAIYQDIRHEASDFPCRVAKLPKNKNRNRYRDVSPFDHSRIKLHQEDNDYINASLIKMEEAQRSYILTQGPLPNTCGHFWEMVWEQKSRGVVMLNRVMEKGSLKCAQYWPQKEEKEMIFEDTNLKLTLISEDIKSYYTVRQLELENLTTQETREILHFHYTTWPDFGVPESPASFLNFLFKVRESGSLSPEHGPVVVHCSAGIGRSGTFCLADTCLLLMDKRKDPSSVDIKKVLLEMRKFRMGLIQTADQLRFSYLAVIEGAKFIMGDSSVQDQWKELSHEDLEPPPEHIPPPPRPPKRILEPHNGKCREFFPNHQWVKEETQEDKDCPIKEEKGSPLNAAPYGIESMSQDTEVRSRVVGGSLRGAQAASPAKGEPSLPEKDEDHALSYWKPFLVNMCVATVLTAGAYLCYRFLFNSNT
The experiment in a line: PTP1B assay (pNPP hydrolysis). Type of assay: biochemical. Particulars: for IC50: 2 mM pNPP, pH 6.0, 30 °C, 30 min, read-out: PTP1B inhibitory activity IC50. On the procedure:
PTP1B (human, recombinant) was purchased from BIOMOL Research Laboratories, Inc. Enzyme activity was measured in a reaction mixture containing 2 mM p-nitrophenyl phosphate (pNPP) in 50 mM citrate, pH 6.0 (composition: 0.1 M NaCl, 1 mM EDTA, and 1 mM dithiothreitol (DTT)). The reaction mixture was placed in an incubator maintained at 30 °C for 30 min, and the reaction was terminated by the addition of 1 N NaOH. The amount of p-nitrophenol produced was estimated by measuring the increase in absorbance at 405 nm. The nonenzymatic hydrolysis of 2 mM pNPP was corrected by measuring the increase in absorbance at 405 nm in the absence of PTP1B enzyme. For the kinetic analysis, the reaction mixture consisted of different concentrations of pNPP as a PTP1B substrate in the absence or presence of compound 1, and assays were performed as described above. The Michaelis-Menten constant (Km) and maximum velocity (Vmax) of PTP1B were determined by the Lineweaver-Burk plot using a GraphPad Prism® 4 program (GraphPad Software Inc., San Diego, CA, USA).

The test system of assay [3] is iNOS-derived NO production in murine peritoneal macrophages. The experiment in a line: Nitrite (NO) production in LPS-stimulated macrophages, Griess reaction. Particulars: Mus musculus, Peritoneal macrophage; pre-treated 12 h, LPS 1 μg/mL 18 h. Type of assay: cell-based, murine (C57BL/6 mice). On the procedure:
The expression of pro-inflammatory enzymes, including COX-2 and iNOS, plays an important role in immune-activated macrophages via the production of COX-2-derived PGE2 and iNOS-derived NO [20, 21]. To investigate the effects of compounds on iNOS-derived NO and COX-2-derived PGE2 production, and iNOS and COX-2 expression in LPS-stimulated macrophages, murine peritoneal macrophages were stimulated with LPS (1 μg/mL) for 18 h in the presence or absence of non-cytotoxic concentrations of compounds 1–3 (Figure S1). […] The finding that penstyrylpyrone (1) suppressed LPS-induced pro-inflammatory mediators, such as NO, PGE2, iNOS, and COX-2, led further investigation of the effects of penstyrylpyrone (1) on LPS-induced TNF-α and IL-1β production, which are other pro-inflammatory mediators.
C57BL/6 mice were purchased from Orient Bio Co. (Sungnam, Kyung-Kido, Korea). TG-elicited peritoneal macrophages were harvested four days after intraperitoneal (i.p.) injection of 3 mL of TG [37]. Peritoneal lavage was performed using 8 mL of Hanks’ Balanced Salt Solution containing 10 U/mL heparin. The cells were distributed in Roswell Park Memorial Institute medium (RPMI) supplemented with 10% heat-inactivated FBS, in 6-well tissue culture plates (5 × 10^6 cells/mL).
The production of nitrite, a stable end product of NO oxidation, was used as a measure of iNOS activity. The nitrite present in the conditioned medium was determined using a method based on the Griess reaction.

The test system of assay [4] is IL-1β production in murine peritoneal macrophages. Nature of the assay: IL-1β production in LPS-stimulated macrophages, ELISA. Format: cell-based, murine (C57BL/6 mice). As to conditions: Mus musculus, Peritoneal macrophage; pre-treated 12 h, LPS 1 μg/mL 18 h. On the procedure:
as §1

The next assay concerns CD4. More on the design: method as in doi:10.1351/pac199466102383. Particulars: previously reported ref 43; cited from earlier work.
In assay [5] the test system is COX-2-derived PGE2 production in murine peritoneal macrophages. The experiment in a line: PGE2 production in LPS-stimulated macrophages, ELISA. Particulars: Mus musculus, Peritoneal macrophage; pre-treated 12 h, LPS 1 μg/mL 18 h. Format: cell-based, murine (C57BL/6 mice). On the procedure:
as §1

With `CC1=Cc2oc3cc(O)c(O)c(C(=O)O)c3c(=O)c2CO1` [Anhydrofulvic acid (2), anhydrofulvic acid], the 50% inhibitory concentration (IC50) was greater than 40 µM in assay [1]; 1.9 µM in assay [2]; greater than 40 µM in assay [3]; greater than 40 µM in assay [4]; greater than 40 µM in assay [5]. Besides, the “Mode of PTP1B inhibition (Lineweaver-Burk, non-linear regression)” value in assay [2] (different concentrations of pNPP) was “competitive”. The CD4-binding activity entry with CD4 is recorded as “weak”.
For `Cc1cc(=O)c2c(o1)-c1c(cc(O)c(O)c1C(=O)O)OC2` [Citromycetin (3), citromycetin], the half-inhibitory concentration (IC50) in assay [1] is greater than 40 µM; in assay [2], greater than 25.8 µM; in assay [3], greater than 40 µM; in assay [4] it was greater than 40 µM; in assay [5], greater than 40 µM. For the same compound, the CD4-binding activity entry in the assay with CD4 is given as “weak”.
